The values below come from patent publication US5945440A, “Indolocarbazole imides and the use thereof” (priority 1992, dated 1999).

The target in one data set is protein kinase C. The data set is described as follows: inhibition of protein kinase C, enzyme test. Type of data set: biochemical. The settings on record: for IC50: read-out: inhibition of the protein kinases, C-kinase IC50. The protocol: In order to ascertain whether it is a question of a selective inhibition of MLC kinase, the compounds were also investigated in other enzyme tests for protein kinase, including tests for protein kinase C. The results from the PKC test are also given in the following Table I. Furthermore, the Table contains selectivity factors which were calculated by the determination of the ratios of the IC50 values.

In data set [1] the test system is narcotised, spontaneously hypertensive rat (SHR). Put plainly: anti-hypertensive action in narcotised spontaneously hypertensive rats, i.v. Type of data set: in vivo. The settings on record: for reduction of the average arterial blood pressure / reduction of the heart frequency: 60 minutes after administration, average ± SD; for anti-hypertensive action, in words / influencing of the heart frequency, in words: i.v. As to the method: As test model, there was used the narcotised, spontaneously hypertensive rat (SHR). After intravenous administration of the inhibitor of MLC kinase, in each case 60 minutes after the administration of the compound, there were found the reductions of the average arterial blood pressure set out in the following Table 2.

The target in data set [2] is T1, MLC kinase (myosin light-chain kinase) (Gallus gallus, UniProt P11799).
T1 construct: MLC kinase was purified from chicken stomach; from tissue; host or cells: chicken stomach (gizzard smooth muscle)
The data set is described as follows: inhibition of MLC kinase, in vitro enzyme test (32P phosphate incorporation). It is filed as biochemical, chicken (stomach). The settings on record: for IC50: 1 nM MLC kinase, 250 μM ATP, pH 7.2, 20 minutes at 30° C., read-out: inhibition of the protein kinases, MLC-kinase IC50; for MLC kinase inhibition, in words: potency and selectivity vs protein kinase C; for ratio of IC50 C-kinase/IC50 MLC-kinase: selectivity factor calculated from the IC50 values.
Description: Inhibition of the enzyme MLC kinase (EC 3.6.1.3; kinase of the light myosin chain; myosin light-chain kinase).
The inhibition of MLC kinase was measured in an in vitro enzyme test.
The reaction was initiated by the addition of 1 nM MLC kinase. After incubation for 20 minutes at 30° C., the reaction was stopped with TCA and the samples then filtered off. The phosphate incorporation took place by means of Cerenkov counting of the filter.

For data set [3], the system named is HIV. The data set is described as follows: phorbol ester-induced HIV reactivation, HIV-induced syncytia formation with indicator cell. It is filed as cell-based. Particulars: Human immunodeficiency virus 1; U1 cells, PMA stimulation; average value; n = 2; read-out: inhibition of the HIV production IC50, syncytia formation. The protocol: (§1) In the case of the establishment of this hypothesis, use was made of the promonocytic cell line U1.
(§2) Without stimulation, no formation of HIV can be measured in these cells but, after 15 minutes stimulation with the phorbol ester PMA, it results in a massive production of HIV.
(§3) Some of the PKC inhibitors according to the present invention were investigated in this model. As a measure for the HIV production, either with the help of an ELISA test there was determined the viral protein p24 or with the help of an indicator cell, there was measured the HIV-induced formation of syncytia (giant cells produced by the fusion of individual cells).

Data set [4] has as its system promonocytic cell line U1. Put plainly: control experiments for cytotoxic action in the HIV model. Type of data set: cell-based.
Data set [5] concerns HIV. The data set is described as follows: phorbol ester-induced HIV reactivation, viral protein p24 by ELISA. It is filed as cell-based. The settings on record: Human immunodeficiency virus 1; U1 cells, PMA stimulation; average value ± SD; n = 3; read-out: inhibition of the HIV production IC50, p24 expression. The protocol: as §1, §2, §3
For data set [6], the system named is HIV. The data set is described as follows: HIV production in PMA-stimulated promonocytic U1 cells (both methods). It is filed as cell-based. As to the method:
as §1, §2, §3

The subject of a further data set is human tumour cells. Put plainly: colony test, human tumour cells in soft agar (tumour types in general). It is filed as cell-based. The settings on record: certain tumour types. The protocol: For this test, human tumour cells are kept as solid tumour by passage on the nude mouse. For the test, an individual cell suspension is prepared and the cells then plated out in dishes containing soft agar. Under these conditions, the tumour cells multiply and form colonies.

T1 sequence (P11799 935-1906): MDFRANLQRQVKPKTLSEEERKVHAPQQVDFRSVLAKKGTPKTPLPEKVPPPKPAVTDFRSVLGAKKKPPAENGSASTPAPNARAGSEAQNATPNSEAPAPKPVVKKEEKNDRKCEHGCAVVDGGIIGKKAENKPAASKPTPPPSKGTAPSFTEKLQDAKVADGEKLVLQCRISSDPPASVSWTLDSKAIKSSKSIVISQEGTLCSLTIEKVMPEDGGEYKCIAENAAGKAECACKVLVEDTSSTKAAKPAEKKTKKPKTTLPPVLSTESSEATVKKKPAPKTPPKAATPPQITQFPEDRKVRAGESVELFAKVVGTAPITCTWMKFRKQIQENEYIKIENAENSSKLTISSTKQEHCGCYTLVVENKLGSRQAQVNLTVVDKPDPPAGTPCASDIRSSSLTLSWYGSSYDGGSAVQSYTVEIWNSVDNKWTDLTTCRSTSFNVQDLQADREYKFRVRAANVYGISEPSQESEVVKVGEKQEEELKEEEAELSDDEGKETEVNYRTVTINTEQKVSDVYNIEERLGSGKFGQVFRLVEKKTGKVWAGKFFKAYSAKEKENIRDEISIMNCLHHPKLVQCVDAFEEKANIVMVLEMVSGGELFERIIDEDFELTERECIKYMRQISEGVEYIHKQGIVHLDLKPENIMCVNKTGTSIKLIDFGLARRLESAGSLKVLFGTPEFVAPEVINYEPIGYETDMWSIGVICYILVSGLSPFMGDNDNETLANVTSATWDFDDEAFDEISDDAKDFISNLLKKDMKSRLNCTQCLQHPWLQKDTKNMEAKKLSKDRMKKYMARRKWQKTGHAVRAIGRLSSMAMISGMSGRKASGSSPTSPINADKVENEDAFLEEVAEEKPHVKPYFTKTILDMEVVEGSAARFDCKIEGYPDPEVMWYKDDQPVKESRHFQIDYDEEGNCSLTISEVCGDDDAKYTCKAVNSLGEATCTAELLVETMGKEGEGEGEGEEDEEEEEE

Take `NC(=O)CCn1c2ccccc2c2c3c(c4c5ccccc5[nH]c4c21)C(=O)NC3=O` [Example 5, 12-(2-Carbamoylethyl)-6,7,12,13-tetrahydro-5,7-dioxo-5H-indolo[2,3-a]pyrrolo[3,4-c]carbazole]: at protein kinase C, the IC50 was 0.087 µM. In data set [1] (1 mg/kg i.v.), the “reduction of the average arterial blood pressure” value is on record as 15 ± 5% and the “reduction of the heart frequency” value is reported as 3 ± 3%. Besides, in data set [1] (3 mg/kg i.v.), the “reduction of the average arterial blood pressure” value amounted to 23 ± 3% and the “reduction of the heart frequency” value is given as 7 ± 4%. In data set [1] (10 mg/kg i.v.), the “reduction of the average arterial blood pressure” value was 40 ± 8% and the “reduction of the heart frequency” value is given as 4 ± 3%. Besides, in data set [1], the “anti-hypertensive action, in words” value was “dosage-dependent anti-hypertensive action could be demonstrated” and the “influencing of the heart frequency, in words” value (shortened to “influencing”) is given as “scarcely observable”. Moreover, in data set [2], the half-inhibitory concentration (IC50) was 0.0037 µM; the “MLC kinase inhibition, in words” value is “potent and selective inhibitors of MLC kinase”; the “ratio of IC50 C-kinase/IC50 MLC-kinase” value is recorded as 24.

With `COc1ccc2c(c1)c1c3c(c4c5ccccc5n(C)c4c1n2CCC#N)C(=O)NC3=O` [Example 1, 13-(2-Cyanoethyl)-6,7,12,13-tetrahydro-3-methoxy-12-methyl-5,7-dioxo-5H-indolo[2,3-a]pyrrolo[3,4-c]-carbazole], the “protein kinase C inhibition, in words” value in the data set on protein kinase C (potency and selectivity vs MLC kinase) was “potent and selective protein kinase C inhibitor”. Besides, the IC50 on protein kinase C is 0.0015 µM; in the data set on HIV [3], 0.028 µM; in data set [2], 0.2 µM; in the data set on HIV [5], 0.118 ± 0.098 µM. The “cytotoxic action as cause of the anti-HIV action, in words” value in data set [4] is listed as “the anti-HIV action did not come about due to a cytotoxic action”. The “ratio of IC50 C-kinase/IC50 MLC-kinase” value in data set [2] is 0.008. The “anti-HIV action, in words” value in the data set on HIV [6] (both test methods) was “an anti-HIV action could be demonstrated”.

Regarding `CC1CNCCN1S(=O)(=O)c1cccc2cnccc12` (stereo not shown) [Example H-7, reference compound], in the data set on HIV [6] (1 hour before PMA stimulation and 48 hours after), the “suppression of HIV production, in words” value is reported as “the production of HIV can be completely suppressed”.

Consider `Cn1c2ccccc2c2c3c(c4c5ccccc5[nH]c4c21)C(=O)NC3=O` [Example 7c, 6,7,12,13-tetrahydro-12-methyl-5,7-dioxo-5H-indolo[2,3-a]pyrrolo[3,4-c]carbazole], for which the IC50 at protein kinase C is more than 10 µM. Besides, in data set [1] (3 mg/kg i.v.), the “reduction of the average arterial blood pressure” value was 10 ± 7% and the “reduction of the heart frequency” value was 7 ± 3%. Besides, in data set [1] (10 mg/kg i.v.), the “reduction of the average arterial blood pressure” value amounted to 23 ± 2% and the “reduction of the heart frequency” value was 8 ± 2%. For the same compound, in data set [1], the “anti-hypertensive action, in words” value is recorded as “dosage-dependent anti-hypertensive action could be demonstrated” and the “influencing” value was “scarcely observable”. Further, in data set [2], the IC50 is 0.023 µM; the “MLC kinase inhibition, in words” value was “potent and selective inhibitors of MLC kinase”; the “ratio of IC50 C-kinase/IC50 MLC-kinase” value is given as more than 435.

In the case of `CN(C)CC(O)Cn1c2ccccc2c2c3c(c4c5ccccc5n(C)c4c21)C(=O)NC3=O` (racemic) [Example 10, (±)-12-(3-Dimethylamino-2-hydroxy-1-propyl)-6,7,12,13-tetrahydro-13-methyl-5,7-dioxo-5H-indolo[2,3-a]pyrrolo-[3,4-c]carbazole], the IC50 on protein kinase C turned out to be 0.021 µM. In the data set on human tumour cells, the “inhibition of tumour cell growth, in words” value was “the growth of the tumour cells can be inhibited depending upon the concentration”. For the same compound, the “ratio of IC50 C-kinase/IC50 MLC-kinase” value in data set [2] was 0.2.

With `CC(C)N(CCCn1c2ccccc2c2c3c(c4c5ccccc5[nH]c4c21)C(=O)NC3=O)C(C)C` [Example 7g, 12-(3-diisopropylaminopropyl)-6,7,12,13-tetrahydro-5,7-dioxo-5H-indolo[2,3-a]pyrrolo[3,4-c]carbazole], the IC50 at protein kinase C is 0.042 µM; in data set [2] it was 0.11 µM. The “inhibition of tumour cell growth, in words” value with human tumour cells is on record as “the growth of the tumour cells can be inhibited depending upon the concentration”. Moreover, the “ratio of IC50 C-kinase/IC50 MLC-kinase” value in data set [2] is reported as 0.4.

On to `COc1ccc2[nH]c3c4[nH]c5ccc(OC)cc5c4c4c(c3c2c1)C(=O)NC4=O` [Example 11d, 6,7,12,13-tetrahydro-3,9-dimethoxy-5,7-dioxo-5H-indolo[2,3-a]pyrrolo[3,4-c]carbazole], for which the IC50 at protein kinase C is more than 10 µM. Besides, in data set [1] (3 mg/kg i.v.), the “reduction of the average arterial blood pressure” value came out at 16 ± 3% and the “reduction of the heart frequency” value was 6 ± 2%. In addition, in data set [1] (10 mg/kg i.v.), the “reduction of the average arterial blood pressure” value was 35 ± 5% and the “reduction of the heart frequency” value worked out at 10 ± 3%. In data set [1], the “anti-hypertensive action, in words” value is given as “dosage-dependent anti-hypertensive action could be demonstrated” and the “influencing” value was “scarcely observable”. In data set [2], the concentration for half-maximal inhibition (IC50) was determined as 0.021 µM; the “MLC kinase inhibition, in words” value is “potent and selective inhibitors of MLC kinase”; the “ratio of IC50 C-kinase/IC50 MLC-kinase” value is more than 476.

As for `COc1ccc2[nH]c3c(c4c(c5c6cc(OC)ccc6n(C)c35)C(=O)NC4=O)c2c1` [Example 7b, 6,7,12,13-tetrahydro-3,9-dimethoxy-12-methyl-5,7-dioxo-5H-indolo[2,3-a]pyrrolo[3,4-c]carbazole], the 50% inhibitory concentration (IC50) on protein kinase C was more than 10 µM. Besides, in data set [2], the IC50 was determined as 0.0087 µM; the “MLC kinase inhibition, in words” value is “potent and selective inhibitors of MLC kinase”; the “ratio of IC50 C-kinase/IC50 MLC-kinase” value is more than 1149.

`Cn1c2ccccc2c2c3c(c4c5ccccc5n(CC#N)c4c21)C(=O)NC3=O` [Example 1e, 12-cyanomethyl-6,7,12,13-tetrahydro-13-methyl-5,7-dioxo-5H-indolo[2,3-a]pyrrolo[3,4-c]carbazole]: on protein kinase C, the IC50 turned out to be 0.014 µM. In data set [2], the concentration for half-maximal inhibition (IC50) was found to be 0.017 µM and the “ratio of IC50 C-kinase/IC50 MLC-kinase” value was 0.8.
